Test results from patent publication US20140171357A1, “VANCOMYCIN DERIVATIVES” (Seachald Pharmaceuticals, Inc., priority 2011, published 2014).
Values after ≈ are worked out from the molar mass of the structure shown.

Tests used:
B. anthracis Sterne 105 = format: cell-based, Bacillus anthracis; conditions: Tween 80 0.002% medium, serum condition not stated
[1] = test system: methicillin-susceptible S. aureus (MSSA, 22); assay: MIC broth microdilution, MSSA; conditions: for MIC 50% / MIC 90%: MSSA (22)
[2] = test system: methicillin-resistant S. aureus (MRSA, 22); assay: MIC broth microdilution, MRSA; conditions: for MIC 50% / MIC 90%: MRSA (22)
[3] = test system: vancomycin-intermediate S. aureus (VISA, 5); assay: MIC broth microdilution, VISA
[4] = test system: vancomycin-resistant S. aureus (VRSA, 6); assay: MIC broth microdilution, VRSA
[5] = test system: heterogeneous VISA (hVISA, 10); assay: MIC broth microdilution, hVISA
S. pneumoniae (22) = assay: MIC broth microdilution, S. pneumoniae; conditions: for MIC 50% / MIC 90%: S. pneumoniae (22), MHB + lysed horse blood
[6] = test system: Staphylococcus epidermidis (43 strains); assay: MIC broth microdilution, S. epidermidis; conditions: S. epidermidis (43)
[7] = test system: VanA vancomycin-resistant E. faecium (10); assay: MIC broth microdilution, VanA E. faecium; conditions: E. faecium, VanA (10)
[8] = test system: VanB vancomycin-resistant E. faecium (10); assay: MIC broth microdilution, VanB E. faecium; conditions: E. faecium, VanB (10)
S. aureus ATCC 25923 = assay: Neutropenic murine thigh infection model; conditions: for AUCc-t (AUC difference between control and treated animals): 24 h time kill; for in vivo efficacy against S. aureus (in words): neutropenic soft tissue infection model
[9] = test system: VanA vancomycin-resistant E. faecalis (11); assay: MIC broth microdilution, VanA E. faecalis; conditions: E. faecalis, VanA (11)
[10] = test system: VanB vancomycin-resistant E. faecalis (12); assay: MIC broth microdilution, VanB E. faecalis; conditions: E. faecalis, VanB (12)
[11] = test system: Staphylococcus aureus (65 strains); assay: MIC broth microdilution, S. aureus all isolates; conditions: S. aureus (65), all resistance subsets
[12] = test system: β-hemolytic streptococci (23); assay: MIC broth microdilution, β-hemolytic streptococci; conditions: for fold more potent than teicoplanin and daptomycin / fold more potent than vancomycin: β-hemolytic streptococci; for MIC 50% / MIC 90%: β-hemolytic streptococci (23), MHB + lysed horse blood
VanC enterococci (22) = assay: MIC broth microdilution, vanC-carrying enterococci; conditions: VanC enterococci (22)
[13] = test system: vancomycin-susceptible E. faecium (21); assay: MIC broth microdilution, vancomycin-susceptible E. faecium; conditions: E. faecium, vancomycin-susceptible (21)
[14] = test system: vancomycin-susceptible E. faecalis (23); assay: MIC broth microdilution, vancomycin-susceptible E. faecalis; conditions: E. faecalis, vancomycin-susceptible (23)
[15] = 1 mg/kg single intraperitoneal dose
[16] = 4 mg/kg single intraperitoneal dose
[17] = 16 mg/kg single intraperitoneal dose

CCCCCCCCCCNCCNC1(C)CC(OC2C(Oc3c4cc5cc3Oc3ccc(cc3Cl)C(O)C3NC(=O)C(NC(=O)C5NC(=O)C(CC(N)=O)NC(=O)C(NC(=O)C(CC(C)C)NC)C(O)c5ccc(c(Cl)c5)O4)c4ccc(O)c(c4)-c4c(O)cc(O)cc4C(C(=O)NCCOCCOCCN)NC3=O)OC(CO)C(O)C2O)OC(C)C1O (centres unmarked) [Compound 2]
MIC (B. anthracis Sterne 105): 0.03 µg/mL (≈ 0.017 µM) | modal MIC ([1]; MSSA): 0.03 µg/mL | MIC 50% [1]: 0.03 µg/mL (≈ 0.017 µM) | MIC 90% [1]: 0.12 µg/mL (≈ 0.0681 µM) | modal MIC ([2]; MRSA): 0.06 µg/mL | MIC 50% [2]: 0.06 µg/mL (≈ 0.034 µM) | MIC 90% [2]: 0.12 µg/mL (≈ 0.0681 µM) | MIC 50% [3]: 0.12 µg/mL (≈ 0.0681 µM) | MIC 50% [4]: 1 µg/mL (≈ 0.567 µM) | MIC 50% [5]: 0.06 µg/mL (≈ 0.034 µM) | MIC 90% [5]: 0.12 µg/mL (≈ 0.0681 µM) | fold more potent than linezolid (S. pneumoniae (22); S. pneumoniae): 32 fold | MIC 50% (S. pneumoniae (22)): 0.015 µg/mL | MIC 90% (S. pneumoniae (22)): 0.03 µg/mL | MIC 50% [6]: 0.03 µg/mL (≈ 0.017 µM) | MIC 90% [6]: 0.06 µg/mL (≈ 0.034 µM) | MIC 50% [7]: 1 µg/mL (≈ 0.567 µM) | MIC 90% [7]: 2 µg/mL (≈ 1.13 µM) | MIC 50% [8]: 0.015 µg/mL (≈ 0.00851 µM) | MIC 90% [8]: 0.03 µg/mL (≈ 0.017 µM) | Max Kill (maximum decrease from initial infection level) (S. aureus ATCC 25923; [15]): −0.28 Log10 CFU/thigh | AUCc-t (AUC difference between control and treated animals) (S. aureus ATCC 25923; [15]): 29 (Log10 CFU/thigh)/hr | Max Kill (maximum decrease from initial infection level) (S. aureus ATCC 25923; [16]): −1.01 Log10 CFU/thigh | AUCc-t (AUC difference between control and treated animals) (S. aureus ATCC 25923; [16]): 40.1 (Log10 CFU/thigh)/hr | Max Kill (maximum decrease from initial infection level) (S. aureus ATCC 25923; [17]): −1.13 Log10 CFU/thigh | AUCc-t (AUC difference between control and treated animals) (S. aureus ATCC 25923; [17]): 55 (Log10 CFU/thigh)/hr | organism reduction across doses (S. aureus ATCC 25923; 1, 4 and 16 mg/kg intraperitoneal): organism reduction over the entire dose range | in vivo efficacy against S. aureus (in words) (S. aureus ATCC 25923): bactericidal characteristics and prolonged in vivo activity | MIC 50% [9]: 2 µg/mL (≈ 1.13 µM) | MIC 90% [9]: 4 µg/mL (≈ 2.27 µM) | MIC 50% [10]: 0.06 µg/mL (≈ 0.034 µM) | MIC 90% [10]: 0.12 µg/mL (≈ 0.0681 µM) | MIC 50% [11]: 0.06 µg/mL (≈ 0.034 µM) | MIC 90% [11]: 0.12 µg/mL (≈ 0.0681 µM) | fold more potent than teicoplanin and daptomycin [12]: two- to four | fold more potent than vancomycin [12]: four- to eight | MIC 50% [12]: 0.03 µg/mL | MIC 90% [12]: 0.12 µg/mL | MIC 50% (VanC enterococci (22)): 0.06 µg/mL (≈ 0.034 µM) | MIC 90% (VanC enterococci (22)): 0.12 µg/mL (≈ 0.0681 µM) | MIC 50% [13]: 0.015 µg/mL (≈ 0.00851 µM) | MIC 90% [13]: 0.03 µg/mL (≈ 0.017 µM) | MIC 50% [14]: 0.06 µg/mL (≈ 0.034 µM) | MIC 90% [14]: 0.12 µg/mL (≈ 0.0681 µM)

CNC(CC(C)C)C(=O)NC1C(=O)NC(CC(N)=O)C(=O)NC2C(=O)NC3C(=O)NC(C(=O)NC(C(=O)NCCOCCOCCOCCN(C)C)c4cc(O)c(CNCCOCCOCCOCCN(C)C)c(O)c4-c4cc3ccc4O)C(O)c3ccc(c(Cl)c3)Oc3cc2cc(c3OC2OC(CO)C(O)C(O)C2OC2CC(C)(NCc3ccc(-c4ccc(Cl)cc4)cc3)C(O)C(C)O2)Oc2ccc(cc2Cl)C1O (centres unmarked) [Compound 23]
MIC (B. anthracis Sterne 105): 0.12 µg/mL (≈ 0.0576 µM)

CNC(CC(C)C)C(=O)NC1C(=O)NC(CC(N)=O)C(=O)NC2C(=O)NC3C(=O)NC(C(=O)NC(C(=O)NCCOCCOCCOCCN)c4cc(O)c(CNCCOCCOCCOCCN)c(O)c4-c4cc3ccc4O)C(O)c3ccc(c(Cl)c3)Oc3cc2cc(c3OC2OC(CO)C(O)C(O)C2OC2CC(C)(NCc3ccc(-c4ccc(Cl)cc4)cc3)C(O)C(C)O2)Oc2ccc(cc2Cl)C1O (centres unmarked) [Compound 24]
MIC (B. anthracis Sterne 105): 0.03 µg/mL (≈ 0.0148 µM)

CNC(CC(C)C)C(=O)NC1C(=O)NC(CC(N)=O)C(=O)NC2C(=O)NC3C(=O)NC(C(=O)NC(C(=O)O)c4cc(O)c(CNCCOCCOCC[N+](C)(C)C)c(O)c4-c4cc3ccc4O)C(O)c3ccc(c(Cl)c3)Oc3cc2cc(c3OC2OC(CO)C(O)C(O)C2OC2CC(C)(NCc3ccc(OCc4ccc(Cl)c(Cl)c4)cc3)C(O)C(C)O2)Oc2ccc(cc2Cl)C1O (centres unmarked) [Compound 29]
MIC (B. anthracis Sterne 105): 0.03 µg/mL | MIC 50% [1]: 0.06 µg/mL | MIC 90% [1]: 0.12 µg/mL | MIC 50% [2]: 0.06 µg/mL | MIC 90% [2]: 0.12 µg/mL | MIC 50% [3]: 0.25 µg/mL | MIC 50% [4]: 4 µg/mL | MIC 50% [5]: 0.06 µg/mL | MIC 90% [5]: 0.12 µg/mL | MIC 50% (S. pneumoniae (22)): 0.03 µg/mL | MIC 90% (S. pneumoniae (22)): 0.06 µg/mL | MIC 50% [6]: 0.03 µg/mL | MIC 90% [6]: 0.06 µg/mL | MIC 50% [7]: 1 µg/mL | MIC 90% [7]: 2 µg/mL | MIC 50% [8]: 0.06 µg/mL | MIC 90% [8]: 0.06 µg/mL | Max Kill (maximum decrease from initial infection level) (S. aureus ATCC 25923; [15]): 0.08 Log10 CFU/thigh | AUCc-t (AUC difference between control and treated animals) (S. aureus ATCC 25923; [15]): 17.7 (Log10 CFU/thigh)/hr | Max Kill (maximum decrease from initial infection level) (S. aureus ATCC 25923; [16]): 0.07 Log10 CFU/thigh | AUCc-t (AUC difference between control and treated animals) (S. aureus ATCC 25923; [16]): 22.6 (Log10 CFU/thigh)/hr | Max Kill (maximum decrease from initial infection level) (S. aureus ATCC 25923; [17]): −1.05 Log10 CFU/thigh | AUCc-t (AUC difference between control and treated animals) (S. aureus ATCC 25923; [17]): 45.2 (Log10 CFU/thigh)/hr | in vivo efficacy against S. aureus (in words) (S. aureus ATCC 25923): bactericidal characteristics and prolonged in vivo activity | MIC 50% [9]: 4 µg/mL | MIC 90% [9]: 4 µg/mL | MIC 50% [10]: 0.12 µg/mL | MIC 90% [10]: 0.12 µg/mL | MIC 50% [11]: 0.06 µg/mL | MIC 90% [11]: 0.25 µg/mL | fold more potent than teicoplanin and daptomycin [12]: two- to four | fold more potent than vancomycin [12]: four- to eight | MIC 50% [12]: 0.03 µg/mL | MIC 90% [12]: 0.12 µg/mL | MIC 50% (VanC enterococci (22)): 0.12 µg/mL | MIC 90% (VanC enterococci (22)): 0.5 µg/mL | MIC 50% [13]: 0.03 µg/mL | MIC 90% [13]: 0.06 µg/mL | MIC 50% [14]: 0.12 µg/mL | MIC 90% [14]: 0.12 µg/mL
